Test results from US10202350B2, “MCT4 inhibitors for treating disease” (Vettore, LLC, priority 2015, dated 2019).

Legend:
[1] = target: T1, MCT4 (Homo sapiens (Human), UniProt O15427); assay: Lactate transport in MCT4-expressing MDA-MB-453 breast cancer cells (BCECF); format: cell-based; conditions: MDA-MB-453 cells stably expressing MCT4; 50 mM L-lactate
Method: Assay 1: Lactate Transport in MCT4-Expressing MDA-MB-453 Breast Cancer Cells. […] The following is an exemplary procedure for assaying MCT4 activity of the compounds of Formula (I). Preparing BCECF-Loaded Cells: […] The cells are pelleted (300 g, 5 min), washed once with 1 mL Tyrode's Solution, pH 7.4, re-pelleted (300 g, 5 min), and resuspended in 1 mL Tyrode's Solution, pH 7.4. Lactate Transport Assay: […] Fluorescence measurements are performed on a PerkinElmer LS55 fluorescence spectrometer with dual excitation wavelengths achieved using a filter wheel (FL Winlab program: Fast Filter; […] Emission 535). After establishing baseline BCECF fluorescence (around 10-20 s), 50 μL of 1 M sodium L-lactate (Sigma-Aldrich) is added to the cuvette (final concentration: 50 mM) and rapidly mixed.

[2] = target: T1, MCT4; assay: MCT4-mediated lactate transport in NCI-H358 lung adenocarcinoma cells; format: cell-based; conditions: native MCT4, 50 mM L-lactate
Method: Cells (˜7×10^6) are trypsinized (0.05% Trypsin-EDTA), pelleted (300 g, 5 min), and resuspended in 1 mL Tyrode's Solution, pH 7.4 (119 mM NaCl, 5 mM KCl, 25 mM HEPES, pH 7.4, 2 mM CaCl2, 2 mM MgCl2, 6 g/L glucose). 10 μL of a 30 mM DMSO stock of BCECF-AM ester (Life Technologies) is added and the cells are incubated at 37° C. for 5 min. The cells are pelleted (300 g, 5 min), washed once with 1 mL Tyrode's Solution, pH 7.4, re-pelleted (300 g, 5 min), and resuspended in 1 mL Tyrode's Solution, pH 7.4.
(§1) 2.5 μL BCECF-loaded cells, along with either 10 μL DMSO or 100×compound in DMSO, are added to 937.5 μL of Tyrode's Solution in a quartz 1.0 mL cuvette (PerkinElmer, B0631116). Fluorescence measurements are performed on a PerkinElmer LS55 fluorescence spectrometer with dual excitation wavelengths achieved using a filter wheel (FL Winlab program: Fast Filter; Excitation 490/440; Emission 535). After establishing baseline BCECF fluorescence (around 10-20 s), 50 μL of 1 M sodium L-lactate (Sigma-Aldrich) is added to the cuvette (final concentration: 50 mM) and rapidly mixed. The time-dependent decrease in BCECF fluorescence (490/440 ratio) may be fit to an exponential decay curve (Prism GraphPad) to determine the rate of lactate transport.
Assay 2: MCT4-Mediated Lactate Transport in NCI-H358 Lung Adenocarcinoma Cells.
NCI-H358 lung adenocarcinoma cells may be used to measure MCT4 activity in cells with high native levels of MCT4 and low levels of MCT1 and are known to those with skill in the art. Preparation of BCECF-loaded cells and lactate transport activity may be determined as described for Assay 1.

[3] = target: MCT1 (Homo sapiens (Human), UniProt P53985); assay: MCT1-mediated lactate transport in BT20 breast cancer cells; format: cell-based; conditions: native MCT1, 10 mM L-lactate
MCT1, sequence (P53985 whole entry): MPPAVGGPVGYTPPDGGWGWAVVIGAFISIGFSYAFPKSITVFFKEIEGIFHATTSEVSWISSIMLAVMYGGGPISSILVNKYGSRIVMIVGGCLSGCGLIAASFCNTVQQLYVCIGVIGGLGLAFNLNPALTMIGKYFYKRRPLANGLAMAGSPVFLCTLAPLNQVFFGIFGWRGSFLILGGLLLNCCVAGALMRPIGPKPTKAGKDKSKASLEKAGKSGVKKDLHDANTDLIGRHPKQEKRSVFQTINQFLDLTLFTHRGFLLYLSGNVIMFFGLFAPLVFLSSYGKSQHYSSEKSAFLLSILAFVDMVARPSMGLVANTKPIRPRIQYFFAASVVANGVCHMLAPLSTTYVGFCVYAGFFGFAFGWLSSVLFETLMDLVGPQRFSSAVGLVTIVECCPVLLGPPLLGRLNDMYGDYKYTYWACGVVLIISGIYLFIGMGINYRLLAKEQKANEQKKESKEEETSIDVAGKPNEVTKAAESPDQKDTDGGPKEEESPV
MCT1, sequence (P35613 140-385 partner): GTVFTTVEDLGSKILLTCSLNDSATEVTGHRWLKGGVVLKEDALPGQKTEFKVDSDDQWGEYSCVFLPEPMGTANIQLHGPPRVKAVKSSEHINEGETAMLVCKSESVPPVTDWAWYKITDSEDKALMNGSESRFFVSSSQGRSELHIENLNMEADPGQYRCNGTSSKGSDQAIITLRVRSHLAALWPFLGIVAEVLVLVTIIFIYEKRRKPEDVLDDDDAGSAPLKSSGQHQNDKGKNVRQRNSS
Method: (§2) 10 μL of a 30 mM DMSO stock of BCECF-AM ester (Life Technologies) is added and the cells are incubated at 37° C. for 5 min. The cells are pelleted (300 g, 5 min), washed once with 1 mL Tyrode's Solution, pH 7.4, re-pelleted (300 g, 5 min), and resuspended in 1 mL Tyrode's Solution, pH 7.4.
as §1, with “Fluorescence measurements are performed on a PerkinElmer LS55 fluorescence spectrometer with dual excitation wavelengths achieved using a filter wheel (FL Winlab program: Fast Filter; Excitation 490/440; Emission 535).” left out
Assay 4: MCT1-Mediated Lactate Transport in BT20 Breast Cancer Cells.
Preparation of BCECF loaded cells are as described for Assay 1. Lactate transport assay is as described for Assay 1, except 10 mM L-lactate (rather than 50 mM) is added.

[4] = target: T1, MCT4; assay: MCT4-mediated lactate transport in MDA-MB-231 breast cancer cells; format: cell-based; conditions: MDA-MB-231 cells, native MCT4; 50 mM L-lactate
Method: as §2
as §1, with “Fluorescence measurements are performed on a PerkinElmer LS55 fluorescence spectrometer with dual excitation wavelengths achieved using a filter wheel (FL Winlab program: Fast Filter; Excitation 490/440; Emission 535).” left out
Preparation of BCECF-loaded cells and lactate transport activity may be determined as described for Assay 1.

[5] = Metabolic stability in human liver microsomes; format: in vitro ADME; conditions: human liver microsomes 0.5 mg/mL, 2 μM compound; remaining percentage of parent at 60 min
Method: (§3) Metabolic Stability Assays The following are assays that may be used to evaluate the metabolic stability of compounds of Formula (I) in human or mouse microsomes. 1. […] Two separated experiments were performed as follows. a) With NADPH: 10 μL of 20 mg/mL liver microsomes and 40 μL of 10 mM NADPH were added to the incubations. […] The final concentration of microsomes was 0.5 mg/mL. 3. The reaction was started with the addition of 4 μL of 200 μM control compound or test compound solutions. Verapamil was used as positive control in this study. The final concentration of test compound or control compound was 2 μM. 4. Aliquots of 50 μL were taken from the reaction solution at 0, 15, 30, 45 and 60 min. […] Samples were centrifuged at 3, 220 g for 40 minutes. Aliquot of 90 μL of the supernatant was mixed with 90 μL of ultra-pure H2O and then used for LC-MS/MS analysis. 5. Data analysis. All calculations were carried out using Microsoft Excel. Peak areas were determined from extracted ion chromatograms. The slope value, k, was determined by linear regression of the natural logarithm of the remaining percentage of the parent drug vs. incubation time curve. The in vitro half-life (in vitro t½) was determined from the slope value: in vitro t1/2=−(0.693)/k.

[6] = Metabolic stability in mouse liver microsomes; format: in vitro ADME; conditions: mouse liver microsomes 0.5 mg/mL, 2 μM compound; remaining percentage of parent at 60 min
Method: as §3

T1 sequence (O15427 whole entry, looked up): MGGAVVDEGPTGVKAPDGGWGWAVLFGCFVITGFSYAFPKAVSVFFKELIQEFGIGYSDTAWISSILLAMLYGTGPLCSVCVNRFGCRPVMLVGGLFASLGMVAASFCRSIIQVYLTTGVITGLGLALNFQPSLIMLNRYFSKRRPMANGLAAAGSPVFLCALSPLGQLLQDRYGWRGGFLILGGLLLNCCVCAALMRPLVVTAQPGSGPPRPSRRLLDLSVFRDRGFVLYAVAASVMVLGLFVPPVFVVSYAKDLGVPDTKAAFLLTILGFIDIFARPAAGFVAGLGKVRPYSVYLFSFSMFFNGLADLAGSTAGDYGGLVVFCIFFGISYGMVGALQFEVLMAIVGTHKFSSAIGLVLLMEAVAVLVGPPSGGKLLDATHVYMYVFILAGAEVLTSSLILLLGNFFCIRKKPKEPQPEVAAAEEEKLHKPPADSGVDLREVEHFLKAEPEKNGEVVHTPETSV
T1 sequence (P35613 whole entry partner, looked up): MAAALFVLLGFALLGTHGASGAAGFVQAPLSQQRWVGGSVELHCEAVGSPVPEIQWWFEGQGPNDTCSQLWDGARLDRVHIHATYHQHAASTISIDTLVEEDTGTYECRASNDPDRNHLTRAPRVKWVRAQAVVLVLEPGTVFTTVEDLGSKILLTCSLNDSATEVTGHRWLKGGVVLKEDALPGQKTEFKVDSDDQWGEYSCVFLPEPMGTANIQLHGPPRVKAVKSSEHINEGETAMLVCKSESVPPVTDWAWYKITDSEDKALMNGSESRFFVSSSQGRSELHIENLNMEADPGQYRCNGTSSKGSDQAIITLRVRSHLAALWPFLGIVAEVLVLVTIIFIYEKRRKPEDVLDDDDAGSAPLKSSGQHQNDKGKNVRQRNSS

| Compound | IC50 [1] | IC50 [2] | IC50 ([3]; Table 2) | IC50 [4] | Human microsome % 60 min [5] | Mouse microsome % 60 min [6] | IC50 ([3]; Table 3) |
| --- | --- | --- | --- | --- | --- | --- | --- |
| CC(C)(OCc1cc(-c2ccccc2Cl)n(Cc2ccccc2Cl)n1)C(=O)O [Example 9, 2-[[5-(2-Chlorophenyl)-1-[(2-chlorophenyl)methyl]pyrazol-3-yl]methoxy]-2-methyl-propanoic acid] | 320 nM | 340 nM | 39000 nM | – | – | – | – |
| CC(C)(OCc1cc(-c2cccc(Cl)c2)n(Cc2ccccc2Cl)n1)C(=O)O [Example 10, 2-[[5-(3-Chlorophenyl)-1-[(2-chlorophenyl)methyl]pyrazol-3-yl]methoxy]-2-methyl-propanoic acid] | 21 nM | 33 nM | 8800 nM | – | – | – | – |
| Cc1cccc(-c2cc(COC(C)(C)C(=O)O)nn2Cc2ccccc2Cl)c1 [Example 11, 2-[[1-[(2-Chlorophenyl)methyl]-5-(m-tolyl)pyrazol-3-yl]methoxy]-2-methyl-propanoic acid] | 45 nM | 25 nM | 29000 nM | – | – | – | – |
| CC(C)(OCc1cc(-c2cccc(F)c2)n(Cc2ccccc2Cl)n1)C(=O)O [Example 12, 2-[[1-[(2-Chlorophenyl)methyl]-5-(3-fluorophenyl)pyrazol-3-yl]methoxy]-2-methyl-propanoic acid] | 38 nM | 49 nM | 58000 nM | – | – | – | – |
| CC(C)(OCc1cc(-c2cccc(C(F)(F)F)c2)n(Cc2ccccc2Cl)n1)C(=O)O [Example 13, 2-[[1-[(2-Chlorophenyl)methyl]-5-[3-(trifluoromethyl)phenyl]pyrazol-3-yl]methoxy]-2-methyl-propanoic acid] | 20 nM | 22 nM | 17000 nM | – | – | – | – |
| CC(C)(OCc1cc(C2CCCCC2)n(Cc2ccccc2Cl)n1)C(=O)O [Example 15, 2-[[1-[(2-Chlorophenyl)methyl]-5-cyclohexyl-pyrazol-3-yl]methoxy]-2-methyl-propanoic acid] | 900 nM | 440 nM | > 33000 nM | – | – | – | – |
| CC(C)(OCc1cc(C2CCCC2)n(Cc2ccccc2Cl)n1)C(=O)O [Example 16, 2-[[1-[(2-Chlorophenyl)methyl]-5-cyclopentyl-pyrazol-3-yl]methoxy]-2-methyl-propanoic acid] | 1000 nM | 640 nM | 73000 nM | – | – | – | – |
| O=C(O)C1(OCc2cc(-c3ccc(Cl)cc3)n(Cc3ccccc3Cl)n2)CC1 [Example 17, 1-[[5-(4-Chlorophenyl)-1-[(2-chlorophenyl)methyl]pyrazol-3-yl]methoxy]cyclopropanecarboxylic acid] | 440 nM | 860 nM | 1200 nM | – | – | – | – |
| CC(C)(OCc1cc(-c2nccs2)n(Cc2ccccc2Cl)n1)C(=O)O [Example 18, 2-[[1-[(2-Chlorophenyl)methyl]-5-thiazol-2-yl-pyrazol-3-yl]methoxy]-2-methyl-propanoic acid] | 5300 nM | 4200 nM | 45000 nM | – | – | – | – |
| CC(C)(OCc1cc(-c2ccc(Cl)cc2)n(Cc2ccccc2F)n1)C(=O)O [Example 19, 2-[[5-(4-Chlorophenyl)-1-[(2-fluorophenyl)methyl]pyrazol-3-yl]methoxy]-2-methyl-propanoic acid] | 110 nM | 160 nM | 57000 nM | – | – | – | – |
| CC(C)(OCc1cc(-c2ccc(Cl)cc2)n(Cc2ccccc2Cl)n1)C(N)=O [Example 20, 2-[[5-(4-Chlorophenyl)-1-[(2-chlorophenyl)methyl]pyrazol-3-yl]methoxy]-2-methyl-propanamide] | 17000 nM | 22000 nM | 7900 nM | – | – | – | – |
| CC(C)(OCc1cc(-c2ccc(Cl)cc2)n(Cc2ccncc2)n1)C(=O)O [Example 21, 2-[[5-(4-chlorophenyl)-1-(4-pyridylmethyl)pyrazol-3-yl]methoxy]-2-methyl-propanoic acid] | 35000 nM | 48000 nM | 300000 nM | – | – | – | – |
| CC(C)(OCc1cc(-c2ccc(Cl)cc2)n(Cc2ccccn2)n1)C(=O)O [Example 22, 2-[[5-(4-Chlorophenyl)-1-(2-pyridylmethyl)pyrazol-3-yl]methoxy]-2-methyl-propanoic acid] | 14000 nM | 39000 nM | 150000 nM | – | – | – | – |
| CC(C)COc1cccc(-c2cc(COC(C)(C)C(=O)O)nn2Cc2ccccc2Cl)c1 [Example 27, 2-[[1-[(2-Chlorophenyl)methyl]-5-(3-isobutoxyphenyl)pyrazol-3-yl]methoxy]-2-methyl-propanoic acid] | – | – | – | 1 nM | 43% | 50% | 5600 nM |
| CC(C)Oc1cccc(-c2cc(COC(C)(C)C(=O)O)nn2Cc2ccccc2Cl)c1 [Example 35, 2-[[1-[(2-Chlorophenyl)methyl]-5-(3-isopropoxyphenyl)pyrazol-3-yl]methoxy]-2-methyl-propanoic acid] | – | – | – | 5.2 nM | 67% | 31% | 59000 nM |
| COc1cccc(-c2cc(COC(C)(C)C(=O)O)nn2Cc2ccccc2OC)c1 [Example 36, 2-[[5-(3-Methoxyphenyl)-1-[(2-methoxyphenyl)methyl]pyrazol-3-yl]methoxy]-2-methyl-propanoic acid] | – | – | – | 82 nM | 85% | 99% | 50000 nM |
| COc1cccc(-c2cc(COC(C)(C)C(=O)O)nn2Cc2ccccc2N(C)C)c1 [Example 38, 2-[[1-[[2-(Dimethylamino)phenyl]methyl]-5-(3-methoxyphenyl)pyrazol-3-yl]methoxy]-2-methyl-propanoic acid] | – | – | – | 48 nM | 56% | 61% | 60000 nM |
| COc1cccc(-c2cc(COC(C)(C)C(=O)O)nn2-c2ccccc2Cl)c1 [Example 57, 2-[[1-(2-chlorophenyl)-5-(3-methoxyphenyl)-1H-pyrazol-3-yl]methoxy]-2-methylpropanoic acid] | – | – | – | – | 80% | 100% | > 133000 nM |
